The values below are quoted from earlier work in patent publication US8377888B2, “Method of predicting the clinical response to cisplatin or carboplatin chemotherapeutic treatment” (Pangaea Biotech, S.A., priority 2005, dated 2013).

Data set [1] deals with non-small cell lung cancer (NSCLC). The conditions noted are these: per arm of randomized study.
The test system of data set [2] is MKN74 (14-3-3σ methylation-positive, wild-type p53).
Data set [3] relates to MKN28 (14-3-3σ methylation-positive, mutated p53).
Data set [4] relates to 14-3-3σ methylation-negative cell lines. Particulars: wild-type or mutated p53.
Data set [5] deals with Colon carcinoma cells lacking 14-3-3σ. Particulars: cells initiate but do not maintain G2 arrest.

Turning to paclitaxel/carboplatin, the Median survival in data set [1] is given as 8.2 months.

For `COc1cccc2c1C(=O)c1c(O)c3c(c(O)c1C2=O)C[C@@](O)(C(=O)CO)C[C@@H]3O[C@H]1C[C@H](N)[C@H](O)[C@H](C)O1` [adriamycin], the Sensitivity to adriamycin result in data set [2] was “highly sensitive”; in data set [3], “highly sensitive”; in data set [4], “resistant”. Also, in data set [5], the “Cell fate after adriamycin treatment” value was “mitotic catastrophe and cell death”.
